Data set [1] can be described thus: Thermodynamic solubility of compound at pH 7.4. In kind it is physicochemical. To be noted: buffer, read-out: Therm_solubility.
The nature of data set [2]: Clearance in mouse liver microsomes. It is filed as ADME, Microsome. As to conditions: read-out: CLH.
Data set [3] can be described thus: Permeability across basolateral side to apical side of membrane in human Caco2 cells. In kind it is ADME, cell-based. To be noted: Caco-2, read-out: permeability.
The nature of data set [4]: Permeability across apical side to basolateral side of membrane in human Caco2 cells. As to conditions: Caco-2, read-out: permeability. In kind it is ADME, cell-based.
A short description of data set [5]: Clearance in human liver microsomes. It is filed as ADME, Microsome. To be noted: read-out: CLH.
A short description of data set [6]: Cmax in mouse at 5 mg/kg, po measured after 10 mins. In kind it is ADME, organism-based. On the set-up: dose 5 mg/kg, route oral. As to conditions: in vivo.
A short description of data set [7]: AUC (0 to 8 hrs) in mouse at 5 mg/kg, po measured up to 8 hrs. In kind it is ADME, organism-based. On the set-up: dose 5 mg/kg, time < 8 hr, route oral. To be noted: in vivo.
Data set [8] in a line: Terminal elimination half-life in mouse at 5 mg/kg, po. In kind it is ADME, organism-based. To be noted: in vivo, read-out: beta t1/2 (converted).
Data set [9] in a line: AUC (0 to infinity) in mouse at 5 mg/kg, po. It is filed as ADME, organism-based. Further details: dose 5 mg/kg, route oral, time infinity. As to conditions: in vivo.
Data set [10] is described as follows: AUC (0 to 8 hrs) in mouse at 1 mg/kg, iv measured up to 8 hrs. It is filed as ADME, organism-based. On the set-up: time < 8 hr, dose 1 mg/kg, route intravenous. To be noted: in vivo.
Data set [11] can be described thus: Clearance in mouse at 5 mg/kg, po. In kind it is ADME, organism-based. To be noted: in vivo.
Data set [12] can be described thus: AUC (0 to infinity) in mouse at 1 mg/kg, iv. On the set-up: dose 1 mg/kg, time infinity, route intravenous. It is filed as ADME, organism-based. To be noted: in vivo.
Data set [13] in a line: Tmax in mouse at 5 mg/kg, po. It is filed as ADME, organism-based. To be noted: in vivo.
Data set [14] is described as follows: Apparent volume of distribution in mouse at 1 mg/kg, iv. It is filed as ADME, organism-based. To be noted: in vivo, read-out: Vz.
Data set [15] can be described thus: Initial plasma concentration in mouse at 1 mg/kg, iv. In kind it is ADME, organism-based.
Data set [16] is described as follows: Apparent volume of distribution in mouse at 5 mg/kg, po. In kind it is ADME, organism-based. As to conditions: in vivo.
The nature of data set [17]: Clearance in mouse at 1 mg/kg, iv. It is filed as ADME, organism-based. As to conditions: in vivo.
Data set [18] can be described thus: Terminal elimination half life in mouse at 1 mg/kg, iv. In kind it is ADME, organism-based. As to conditions: in vivo, read-out: beta t1/2 (converted).
The nature of data set [19]: Oral bioavailability in mouse at 5 mg/kg. It is filed as ADME, organism-based. To be noted: in vivo.
A short description of data set [20]: Cmax in mouse at 5 mg/kg, po measured after 0.5 hrs. In kind it is ADME, organism-based. Further details: dose 5 mg/kg, route oral. To be noted: in vivo.

≈ marks a conversion by molar mass, not a printed value.

In the case of `Cc1c(-c2cncc(-c3ccc(C(N)=O)c(OC(C)C)c3)c2)cnn1C`, the solubility thermodynamic in [1] is 7.3 µg/mL (≈ 20.8 µM). The microsomal CLint in data set [2] was 25.1 µL/min/mg; in data set [5], 7.9 µL/min/mg. In addition, the Papp B→A in data set [3] came to 21 ×10⁻⁶ cm/s. For the same compound, the Papp A→B in data set [4] is 27 ×10⁻⁶ cm/s.
Regarding `Cc1n[nH]c(C)c1-c1cncc(-c2ccc(C(N)=O)c(OC(C)C)c2)c1`, the solubility thermodynamic in data set [1] was determined as 10 µg/mL (≈ 28.5 µM). Besides, in data set [2], the microsomal CLint worked out at 62 µL/min/mg. Further, in [3], the Papp B→A is 41 ×10⁻⁶ cm/s. Further, the Papp A→B in data set [4] was 6.2 ×10⁻⁶ cm/s.
In turn, `CC(C)Oc1cc(-c2cccnc2)ccc1C(N)=O` gave a Cmax in data set [6] of 615 ng/mL. Moreover, the AUC(0-t) at 8 h in data set [7] stood at 488 ng·h/mL; in [10], 160 ng·h/mL. The half-life in [8] was 1.6 h; in data set [18] it was 3.4 h. The total exposure AUC(0-inf) was found to be 494 ng·h/mL in data set [9] and 166 ng·h/mL in data set [12]. This compound gave an apparent clearance (CL/F) in data set [11] of 168 mL/min/kg. In addition, the solubility thermodynamic in data set [1] stood at 45 µg/mL (≈ 176 µM). Besides, the values for the microsomal CLint in [2] and in data set [5] were 9.4 µL/min/mg and 5.8 µL/min/mg, respectively. The Tmax in data set [13] is 0.17 h. In data set [3], the Papp B→A was determined as 20 ×10⁻⁶ cm/s. In addition, in data set [4], the Papp A→B came to 32 ×10⁻⁶ cm/s. For the same compound, the Vd in data set [14] stood at 30 L/kg. Further, the C0 in data set [15] stood at 678 ng/mL. In addition, the Vz in data set [16] stood at 23 L/kg. The compound further gave a clearance in data set [17] of 100 mL/min/kg. This compound also showed a bioavailability in data set [19] of 61%.
As to `Cc1[nH]ncc1-c1cncc(-c2ccc(C(N)=O)c(OC(C)C)c2)c1`, the solubility thermodynamic in data set [1] amounted to 11 µg/mL (≈ 32.7 µM). Also, the microsomal CLint in [2] is 251 µL/min/mg; in data set [5] it was 18 µL/min/mg. Also, in data set [3], the Papp B→A was determined as 33 ×10⁻⁶ cm/s. The Papp A→B in [4] came out at 8.3 ×10⁻⁶ cm/s.
Turning to `CC(C)Oc1cc(-c2cncc(-c3cnn(C4COC4)c3)c2)ccc1C(N)=O`, the AUC(0-t) at 8 h in data set [7] came to 2080 ng·h/mL; in data set [10], 568 ng·h/mL. Further, the half-life was 2.8 h in data set [8] and 2.2 h in [18]. Further, the area under the curve AUC(0-inf) in [9] came to 2360 ng·h/mL; in data set [12] it was 579 ng·h/mL. The Cmax in data set [20] amounted to 658 ng/mL. In data set [11], this compound had a CL/F of 35 mL/min/kg. Also, the solubility thermodynamic in data set [1] turned out to be 28 µg/mL (≈ 74 µM). The microsomal CLint in [2] was 3.1 µL/min/mg; in data set [5] it was below 10 µL/min/mg. Further, the Tmax in data set [13] worked out at 0.5 h. Moreover, the Papp B→A in [3] came out at 25 ×10⁻⁶ cm/s. In data set [4], the Papp A→B was determined as 10 ×10⁻⁶ cm/s. Moreover, the Vd in data set [14] was 5.5 L/kg. In data set [16], the Vz came to 8.7 L/kg. Also, in [17], the clearance is 28.3 mL/min/kg. The same compound registered a bioavailability in [19] of 73%.

The values are drawn from ChEMBL document CHEMBL4376877, “Stepwise Evolution of Fragment Hits against MAPK Interacting Kinases 1 and 2” (J Med Chem, 2020).
